This passage reports IC50 results from patent US11851440B2, “Modulators of eukaryotic initiation factor 2B, compositions and methods” (Denali Therapeutics Inc., priority 2017, dated 2023).

The first experiment deals with ISR pathway (ATF4 translation). As to the kind of experiment: ATF4 Nano Luciferase reporter integrated stress response (ISR) assay in H4 ATF4-NLuc cells. Particulars: Homo sapiens, H4 ATF4-NLuc (clone 17) cells; compound 30 minutes, then 50 um sodium arsenite for 6 hours; luminescence readout. Background: A reporter such as luciferase makes a cellular process visible.
As usually defined, the IC50 is the midpoint of a concentration-inhibition curve. Molecule `O=C(COc1ccc(Cl)cc1)NC12CC(c3nnc([C@H]4C[C@@H](OC(F)(F)F)C4)o3)(C1)C2` [Example 3, 2-(4-chlorophenoxy)-N-[3-[5-[cis-3-(trifluoromethoxy)cyclobutyl]-1,3,4-oxadiazol-2-yl]-1-bicyclo[1.1.1]pentanyl]acetamide] returned an IC50 of 9.2 nM.
Same read-out and setting: the result for `O=C(NC12CC(c3nnc([C@H]4C[C@@H](OC(F)(F)F)C4)o3)(C1)C2)C1CCc2cc(Cl)ccc2O1` (single isomer, unassigned) [Example 157, 6-chloro-N-(3-(5-(3-cis-(trifluoromethoxy)cyclobutyl)-1,3,4-oxadiazol-2-yl)bicyclo[1.1.1]pentan-1-yl)chroman-2-carboxamide] reads 9.2 nM; that for `O=C(CO[C@H]1C[C@@H](OC(F)(F)F)C1)NC12CC(n3cnc(-c4ccc(F)cc4)c3)(C1)C2` [Example 136], 22 nM.
On the same count and under the same terms, the value for `O=C(COc1ccc(C(F)(F)F)cc1)NC12CC(c3nnc([C@H]4C[C@@H](OC(F)(F)F)C4)o3)(C1)C2` [Example 162, N-[1-[5-[3-cis-(trifluoromethoxy)cyclobutyl]-1,3,4-oxadiazol-2-yl]-3-bicyclo[1.1.1]pentanyl]-2-[4-(trifluoromethyl)phenoxy]acetamide] was 14.9 nM.

Staying with this experiment, now noted: Homo sapiens, read-out: Activity (IC50), H4 ATF4-NLuc (clone 17) cells; compound 30 minutes, then 50 um sodium arsenite for 6 hours; luminescence readout.
On to `O=C(COc1ccc(Cl)cc1)NC12CC(c3nnc([C@H]4C[C@@H](OC(F)(F)F)C4)o3)(C1)C2` [Example 3, 2-(4-chlorophenoxy)-N-[3-[5-[cis-3-(trifluoromethoxy)cyclobutyl]-1,3,4-oxadiazol-2-yl]-1-bicyclo[1.1.1]pentanyl]acetamide], for which the IC50 was below 1000 nM.
Still for that read-out and setting: the value for `CC(CC(F)F)c1nnc(C23CC(NC(=O)COc4ccc(Cl)c(F)c4)(C2)C3)o1` (centres unmarked) [Example 7, 2-(4-chloro-3-fluoro-phenoxy)-N-[1-[5-(3,3-difluoro-1-methyl-propyl)-1,3,4-oxadiazol-2-yl]-3-bicyclo[1.1.1]pentanyl]acetamide] was below 1000 nM; that for `O=C(NC12CC(c3nnc([C@H]4C[C@@H](OC(F)(F)F)C4)o3)(C1)C2)c1cnc2cc(Cl)ccc2c1` [Example 168] was below 1000 nM.
As for `O=C(COc1ccc(Cl)c(F)c1)NC12CC(C3=NOC(C4CCC4)C3)(C1)C2` (centres unmarked) [Example 23, 2-(4-chloro-3-fluorophenoxy)-N-(3-(5-cyclobutyl-4,5-dihydroisoxazol-3-yl)bicyclo[1.1.1]pentan-1-yl)acetamide], the half-inhibitory concentration (IC50) is below 1000 nM.
For the molecule `O=C(NC12CC(c3nnc([C@H]4C[C@@H](OC(F)(F)F)C4)o3)(C1)C2)c1cn2ccc(C(F)(F)F)cc2n1` [Example 185], the IC50 is below 1000 nM.
Still for that read-out and setting: the value for `O=C(NC12CC(c3nnc([C@H]4C[C@@H](OC(F)(F)F)C4)o3)(C1)C2)C1CCc2cc(Cl)ccc2O1` (single isomer, unassigned) [Example 157, 6-chloro-N-(3-(5-(3-cis-(trifluoromethoxy)cyclobutyl)-1,3,4-oxadiazol-2-yl)bicyclo[1.1.1]pentan-1-yl)chroman-2-carboxamide] was below 1000 nM; that for `O=C(CO[C@H]1C[C@@H](OC(F)(F)F)C1)NC12CC(n3cnc(-c4ccc(C(F)(F)F)cc4)c3)(C1)C2` [Example 150] was below 1000 nM.
Still for that read-out and setting: the value for `O=C(COc1ccc(Cl)c(F)c1)NC12CC(NCCO[C@H]3C[C@@H](n4nccn4)C3)(C1)C2` [Example 197] was below 1000 nM; that for `O=C(COc1ccc(Cl)c(F)c1)NC12CC(c3nc(C4CCC4)co3)(C1)C2` [Example 27, 2-(4-chloro-3-fluoro-phenoxy)-N-[1-(4-cyclobutyloxazol-2-yl)-3-bicyclo[1.1.1]pentanyl]acetamide] was below 1000 nM.
In the case of `O=C(COc1ccc(Cl)c(F)c1)NC12CC(n3cnnn3)(C1)C2` [Example 200], the IC50 was below 1000 nM.
Same read-out and setting: the value for `O=C(NC12CC(c3nnc([C@H]4C[C@@H](OC(F)(F)F)C4)o3)(C1)C2)c1cn2cc(C(F)(F)F)ccc2n1` [Example 186] was below 1000 nM.
On the same count and under the same terms, the value for `O=C(COc1ccc(Cl)c(F)c1)NC12CC(N3CC(C4CCC4)OC3=O)(C1)C2` (centres unmarked) [Example 216] was below 1000 nM; that for `O=C(CO[C@H]1C[C@@H](OC(F)(F)F)C1)NC12CC(c3nnc(OCCOC(F)(F)F)o3)(C1)C2` [Example 276] was below 1000 nM; that for `O=C(CO[C@H]1C[C@@H](OC(F)(F)F)C1)NC12CC(n3cnc(-c4ccc(F)cc4)c3)(C1)C2` [Example 136] was below 1000 nM.
Still for that read-out and setting: the result for `O=C(COc1ccc(C(F)(F)F)nc1)NC12CC(c3nnc([C@H]4C[C@@H](OC(F)(F)F)C4)o3)(C1)C2` [Example 174] reads below 1000 nM; that for `O=C(COc1ccc(C(F)(F)F)cc1)NC12CC(c3nnc([C@H]4C[C@@H](OC(F)(F)F)C4)o3)(C1)C2` [Example 162, N-[1-[5-[3-cis-(trifluoromethoxy)cyclobutyl]-1,3,4-oxadiazol-2-yl]-3-bicyclo[1.1.1]pentanyl]-2-[4-(trifluoromethyl)phenoxy]acetamide], below 1000 nM; that for `O=C(CO[C@H]1C[C@@H](OC(F)(F)F)C1)NC12CC(n3cnc(-c4cc(F)c(Cl)cc4F)c3)(C1)C2` [Example 271], below 1000 nM.
With `O=C(NC12CC(c3nnc([C@H]4C[C@@H](OC(F)(F)F)C4)o3)(C1)C2)c1ncc2cc(Cl)ccc2n1` [Example 195], the IC50 is below 1000 nM.
With `O=C(COc1ccc(Cl)c(F)c1)NC12CC(n3cnc(C4CCC4)c3)(C1)C2` [Example 39, 2-(4-chloro-3-fluoro-phenoxy)-N-[3-(4-cyclobutylimidazol-1-yl)-1-bicyclo[1.1.1]pentanyl]acetamide], the IC50 is below 1000 nM.
Same read-out and setting: the value for `O=C(CO[C@@H]1CC[C@H](OC(F)(F)F)C1)NC12CC(c3nnc([C@H]4C[C@@H](OC(F)(F)F)C4)o3)(C1)C2` [Example 114, N-[3-[5-[3-cis-(trifluoromethoxy)cyclobutyl]-1,3,4-oxadiazol-2-yl]-1-bicyclo[1.1.1]pentanyl]-2-[3-cis-(trifluoromethoxy)cyclopentoxy]acetamide] was 1000 to 10000 nM; that for `O=C(COc1ccc(Cl)c(F)c1)NC12CC(c3nnc([C@H]4C[C@@H]4C(F)F)o3)(C1)C2` (single isomer, unassigned) [Example 84, 2-(4-chloro-3-fluoro-phenoxy)-N-[3-[5-[2-trans-(difluoromethyl)cyclopropyl]-1,3,4-oxadiazol-2-yl]-1-bicyclo[1.1.1]pentanyl]acetamide] was below 1000 nM; that for `O=C(COc1ccc(Cl)c(F)c1)NC12CC(c3nnc(C4CCN(CC(F)(F)F)C4)o3)(C1)C2` (centres unmarked) [Example 16, 2-(4-chloro-3-fluoro-phenoxy)-N-[1-[5-[1-(2,2,2-trifluoroethyl)pyrrolidin-3-yl]-1,3,4-oxadiazol-2-yl]-3-bicyclo[1.1.1]pentanyl]acetamide] was below 1000 nM.
The same measure, in the same setting: the value for `O=C(COC1CCC1)NC12CC(c3nnc(-c4ccc(Cl)c(F)c4)o3)(C1)C2` [Example 42, N-[1-[5-(4-chloro-3-fluoro-phenyl)-1,3,4-oxadiazol-2-yl]-3-bicyclo[1.1.1]pentanyl]-2-(cyclobutoxy)acetamide] was 1000 to 10000 nM; that for `O=C(NC12CC(c3nnc([C@H]4C[C@@H](OC(F)(F)F)C4)o3)(C1)C2)c1cn2ccc(F)cc2n1` [Example 170] was below 1000 nM.
`C#CC12CC(NC(=O)COc3ccc(Cl)c(F)c3)(C1)C2` [Example 31, 2-(4-chloro-3-fluorophenoxy)-N-(3-ethynylbicyclo[1.1.1]pentan-1-yl)acetamide]: the IC50 was in the range of 1000 to 10000 nM.
`O=C(CC(O)c1ccc(Cl)cc1)NC12CC(c3nnc([C@H]4C[C@@H](OC(F)(F)F)C4)o3)(C1)C2` (some centres unmarked) [Example 257]: the IC50 is below 1000 nM.
Still for that read-out and setting: the value for `CC(c1nnc(C23CC(NC(=O)COc4ccc(Cl)c(F)c4)(C2)C3)o1)C1CC1` (centres unmarked) [Example 8, 2-(4-chloro-3-fluoro-phenoxy)-N-[1-[5-(1-cyclopropylethyl)-1,3,4-oxadiazol-2-yl]-3-bicyclo[1.1.1]pentanyl]acetamide] was below 1000 nM.
On the same count and under the same terms, the value for `O=C(NC12CC(c3nnc([C@H]4C[C@@H](OC(F)(F)F)C4)o3)(C1)C2)c1cc2ccc(Br)cc2cn1` [Example 184] was below 1000 nM; that for `O=C(COc1ccc(Cl)cc1)NC12CC(c3nnc(COC4CCC4)o3)(C1)C2` [Example 5, 2-(4-Chlorophenoxy)-N-[1-[5-(cyclobutoxymethyl)-1,3,4-oxadiazol-2-yl]-3-bicyclo[1.1.1]pentanyl]acetamide] was below 1000 nM; that for `O=C(CO[C@H]1C[C@@H](OC(F)(F)F)C1)NC12CC(c3nc(-c4ccc(Cl)cc4)no3)(C1)C2` [Example 205] was below 1000 nM.
For the molecule `O=C(CC[C@H]1C[C@@H](OC(F)(F)F)C1)NC12CC(c3nnc(C4CC(OC(F)(F)F)C4)o3)(C1)C2` (stereo partly drawn) [Example 75, 3-[3-cis-(trifluoromethoxy)cyclobutyl]-N-[3-[5-[3-cis-(trifluoromethoxy)cyclobutyl]-1,3,4-oxadiazol-2-yl]-1-bicyclo[1.1.1]pentanyl]propanamide], the IC50 is 1000 to 10000 nM.
Same read-out and setting: the result for `O=C(NC12CC(c3nnc([C@H]4C[C@@H](OC(F)(F)F)C4)o3)(C1)C2)c1ccn([C@H]2C[C@@H](OC(F)(F)F)C2)n1` (single isomer, unassigned) [Example 108, 1-[cis-3-(trifluoromethoxy)cyclobutyl]-N-[3-[5-[cis-3-(trifluoromethoxy)cyclobutyl]-1,3,4-oxadiazol-2-yl]-1-bicyclo[1.1.1]pentanyl]pyrazole-3-carboxamide] reads below 1000 nM; that for `O=C(COc1ccc(Cl)c(F)c1)NC12CC(c3nnc([C@H]4C[C@@H](C(F)(F)F)C4)o3)(C1)C2` [Example 43, 2-(4-chloro-3-fluorophenoxy)-N-(3-(5-((cis)-3-(trifluoromethyl)cyclobutyl)-1,3,4-oxadiazol-2-yl)bicyclo[1.1.1]pentan-1-yl)acetamide], below 1000 nM; that for `O=C(CO[C@H]1C[C@@H](OC(F)(F)F)C1)NC12CC(c3nnc(C4CC(COC(F)(F)F)C4)o3)(C1)C2` (stereo partly drawn) [Example 107, 2-[3-cis-(trifluoromethoxy)cyclobutoxy]-N-[3-[5-[3-trans-(trifluoromethoxymethyl)cyclobutyl]-1,3,4-oxadiazol-2-yl]-1-bicyclo[1.1.1]pentanyl]acetamide], below 1000 nM.
Take `O=C(COc1ccc(Cl)c(F)c1)NC12CC(c3nnc([C@H]4C[C@H](C(F)(F)F)C4)o3)(C1)C2` [Example 44, 2-(4-chloro-3-fluoro-phenoxy)-N-[1-[5-trans-[3-(trifluoromethyl)cyclobutyl]-1,3,4-oxadiazol-2-yl]-3-bicyclo[1.1.1]pentanyl]acetamide]: the IC50 is below 1000 nM.

The experiment is the same for the next values; noted with them: read-out: Activity (IC50); H4 ATF4-NLuc (clone 17) cells; compound 30 minutes, then 50 um sodium arsenite for 6 hours; luminescence readout.
For the molecule `O=C(NC12CC(c3nnc([C@H]4C[C@@H](OC(F)(F)F)C4)o3)(C1)C2)C1CCc2cc(F)ccc2O1` (single isomer, unassigned) [Example 160], the IC50 is below 1000 nM.
As to `O=C(COc1ccc(Cl)c(F)c1)NC12CC(N3C[C@@H](C4CC(OC(F)(F)F)C4)OC3=O)(C1)C2` (single isomer, unassigned) [Example 209], the IC50 is below 1000 nM.
